One assay concerns NCI-H1876 cell line. Kind of assay: CTG viability, 11x11 concentration matrix, Loewe synergy (SCLC). To be noted: inhibitor combined with compound 1-1, 11x11 matrix, 72 hours.
The next assay deals with NCI-H209 cell line. The assay is described as above. To be noted: inhibitor combined with compound 1-1, 11x11 matrix, 72 hours.
In another assay the test system is OPM-2 cell line. The assay can be described thus: CTG viability, 11x11 concentration matrix, Loewe synergy (multiple myeloma). The settings on record: inhibitor combined with compound 1-1, 11x11 matrix, 72 hours.
For a further assay, the system named is RAJI cell line. Kind of assay: CTG viability, 11x11 concentration matrix, Loewe synergy (lymphoma). The settings on record: inhibitor combined with compound 1-1, 11x11 matrix, 72 hours.
In the next assay the test system is U266B1 cell line. Kind of assay: CTG viability, 11x11 concentration matrix, Loewe synergy (multiple myeloma). To be noted: inhibitor combined with compound 1-1, 11x11 matrix, 72 hours.
The test system of the next assay is KMS-34 cell line. The assay is described as above. To be noted: inhibitor combined with compound 1-1, 11x11 matrix, 72 hours.
The subject of another assay is NCI-H526 cell line. Kind of assay: CTG viability, 11x11 concentration matrix, Loewe synergy (SCLC). The settings on record: inhibitor combined with compound 1-1, 11x11 matrix, 72 hours.
For the next assay, the system named is NCI-H1836 cell line. The description is as above. To be noted: inhibitor combined with compound 1-1, 11x11 matrix, 72 hours.
Another assay deals with WSU-DLCL2 cell line. The assay can be described thus: CTG viability, 11x11 concentration matrix, Loewe synergy (lymphoma). To be noted: inhibitor combined with compound 1-1, 11x11 matrix, 72 hours.
Another assay relates to DOHH-2 cell line. Described as above. To be noted: inhibitor combined with compound 1-1, 11x11 matrix, 72 hours.
In another assay the test system is SU-DHL-6 cell line. Described as above. To be noted: inhibitor combined with compound 1-1, 11x11 matrix, 72 hours.
In the next assay the test system is NCI-H69 cell line. Kind of assay: CTG viability, 11x11 concentration matrix, Loewe synergy (SCLC). The settings on record: inhibitor combined with compound 1-1, 11x11 matrix, 72 hours.
For the next assay, the system named is CAL51 xenografts. The assay can be described thus: CAL51 cell-derived xenograft (CDX) in vivo combination study. The settings on record: compound 1-1 3 mg/kg. The arrangement: species or system SCID Beige mice. On the procedure:
(§1) Compound 1-1 was formulated every day freshly as a solution in 5% DMSO/95% (30% w/v HPβCD in water). This formulation was also used as vehicle control. Everolimus was formulated as a suspension in 1% MC (400 cps), which was prepared every 3 days.
(§2) Body weights were measured at the same time.
(§3) Compound 1-1 was formulated every day freshly as a solution in 5% DMSO/95% (30% w/v HPβCD in water). This formulation was also used as vehicle control. Alpelisib was formulated as a solution in 20% captisol+80% water (pH adjusted to 4), which was prepared every week.

The test system of another assay is MCF7 xenografts. The assay can be described thus: MCF7 cell-derived xenograft (CDX) in vivo combination study. The arrangement: species or system BALB/c nude mice. The settings on record: compound 1-1 10 mg/kg. How it is done:
[…] (0.36 mg) pellets (Innovative Research of America Cat. No.: SE-121, pellet size: 3.0 mm) were implanted 2-3 days before cell inoculation.
as §1, §2
An approximation of drug interactions was made using the method described by Clarke (Clarke et al. 1997. Breast Cancer Res Treat. 46(2-3):255-78). This was applied to […] and can estimate interactions from limited data. In short, for compound A, B, or the combination AB (with control group C), antagonism is predicted when (AB)/C>(A/C)×(B/C), an additive effect is predicted when (AB)/C=(A/C)×(B/C), and synergistic interaction is predicted to occur when (AB)/C<(A/C)×(B/C). Calculations in Table 10B indicate that the interaction of everolimus and compound 1-1 in the MCF7 CDX model is synergistic.
17β-Estradiol (0.36 mg) pellets (Innovative Research of America Cat. No.: SE-121, pellet size: 3.0 mm) were implanted 2-3 days before cell inoculation.
as §3

The next assay concerns MM.1S cell line. Kind of assay: CTG viability, 11x11 concentration matrix, Loewe synergy (multiple myeloma). The settings on record: inhibitor combined with compound 1-1, 11x11 matrix, 72 hours.
The subject of a further assay is RPMI 8226 cell line. The assay is described as above. To be noted: inhibitor combined with compound 1-1, 11x11 matrix, 72 hours.
The test system of a further assay is DB cell line. The assay can be described thus: CTG viability, 11x11 concentration matrix, Loewe synergy (lymphoma). The settings on record: inhibitor combined with compound 1-1, 11x11 matrix, 72 hours.

Procedure for DB cell line: (§4) Cells were cultured in the media recommended by the supplier.
(§5) On the day before compound addition, cells were seeded in 384-well-plates (white with clear flat bottom) at the densities indicated in Table 6 in 40 μL of growth medium. The next day, compounds were dispensed from 10 mM stocks using a HP D300 dispenser according to the concentration matrices described above. For each cell line, the compound concentration matrices were dispensed twice as side-by-side duplicates on one 384-well-plate. In addition, each plate contained 14 wells with only growth medium and 44 wells with cells treated with DMSO alone to calculate the average background and maximal signals, respectively. The final DMSO concentration was normalized to 0.2% across the plates. Plates were then incubated for 72 hours. CellTiter-Glo® Luminescent Cell Viability Assay (CTG, Promega G7570) reagent was prepared according to the manufacturer's instructions. Plates were equilibrated to room temperature for approximately 30 minutes, 25 μL CTG reagent was added to each well and plates were mixed on an orbital shaker for 10 minutes to allow for cell lysis. After further incubation for 20 minutes at room temperature, the clear bottoms of the plates were pasted with white back seal and luminescence was read on an EnVision plate reader (measurement time 0.1 seconds).
Procedure for DOHH-2 cell line: as §4, §5
Procedure for KMS-34 cell line: as §4, §5
Procedure for MM.1S cell line: as §4, §5
Procedure for NCI-H1836 cell line: as §4, §5
Procedure for NCI-H1876 cell line: as §4, §5
Procedure for NCI-H209 cell line: as §4, §5
Procedure for NCI-H526 cell line: as §4, §5
Procedure for NCI-H69 cell line: as §4, §5
Procedure for OPM-2 cell line: as §4, §5
Procedure for RAJI cell line: as §4, §5
Procedure for RPMI 8226 cell line: as §4, §5
Procedure for SU-DHL-6 cell line: as §4, §5
Procedure for U266B1 cell line: as §4, §5
Procedure for WSU-DLCL2 cell line: as §4, §5

As for `Cc1nc(NC(=O)N2CCC[C@H]2C(N)=O)sc1-c1ccnc(C(C)(C)C(F)(F)F)c1` [Alpelisib, (2S)-1-N-[4-methyl-5-[2-(1,1,1-trifluoro-2-methylpropan-2-yl)pyridin-4-yl]-1,3-thiazol-2-yl]pyrrolidine-1,2-dicarboxamide], the “Mean Loewe synergy score, NCI-H1876” value with NCI-H1876 cell line is recorded as 1.64. The “Mean Loewe synergy score, NCI-H209” value in the assay with NCI-H209 cell line is recorded as 1.49. Also, in the assay on OPM-2 cell line, the “Mean Loewe synergy score, OPM-2” value is listed as −2.51. In addition, in the assay on RAJI cell line, the “Mean Loewe synergy score, RAJI” value came to 2.05. For the same compound, the “Mean Loewe synergy score, U266B1” value in the assay with U266B1 cell line came to 0.13. In addition, the “Mean Loewe synergy score, KMS-34” value with KMS-34 cell line came to 7.85. The “Mean Loewe synergy score, NCI-H526” value in the assay with NCI-H526 cell line is reported as 3.7. For the same compound, the “Mean Loewe synergy score, NCI-H1836” value in the assay on NCI-H1836 cell line was found to be 1.69. The “Mean Loewe synergy score, WSU-DLCL2” value in the assay on WSU-DLCL2 cell line is reported as −2.69. Besides, in the assay on DOHH-2 cell line, the “Mean Loewe synergy score, DOHH2” value worked out at 1.59. Further, the “Mean Loewe synergy score, SUDHL6” value in the assay on SU-DHL-6 cell line was −6.28. In addition, the “Mean Loewe synergy score, NCI-H69” value with NCI-H69 cell line is recorded as 5.05. Also, the “antitumor effect vs vehicle (tumor volume)” value in the assay on CAL51 xenografts (day 21, ANOVA with post hoc Tukey's test, alpelisib 20 mg/kg, p.o. qd) is given as “neither alpelisib nor compound 1-1 produced a statistically significant antitumor effect”. Besides, the “Δ TV ratio to vehicle group (A/C, B/C, (AB)/C)” value in the assay on CAL51 xenografts (day 21, Clarke method, alpelisib 20 mg/kg, p.o. qd) was 0.76; in the assay with MCF7 xenografts (day 28, Clarke method, alpelisib 50 mg/kg, p.o. qd), 0.15. For the same compound, the “Δ TV (delta tumor volume)” value in the assay on CAL51 xenografts (day 21, alpelisib 20 mg/kg, combination 20 + 3 mg/kg, p.o. qd for 21 days, average of four tumors) stood at 425 mm3; in the assay with MCF7 xenografts (day 28, alpelisib 50 mg/kg, combination 50 + 10 mg/kg, p.o. qd for 28 days, average of four tumors), 91 mm^3. Besides, the “anti-tumor effect compared to vehicle” value in the assay with MCF7 xenografts (day 28, ANOVA with post hoc Tukey's test, alpelisib 50 mg/kg, p.o. qd) is recorded as “significant anti-tumor effect”. The “Mean Loewe synergy score, MM.1S” value in the assay on MM.1S cell line is 3.44. In the assay with RPMI 8226 cell line, the “Mean Loewe synergy score, RPMI 8226” value is reported as 0.9. In addition, the “Mean Loewe synergy score, DB” value in the assay on DB cell line is on record as −2.27.

In the case of `NC1(C(=O)N[C@@H](CCO)c2ccc(Cl)cc2)CCN(c2ncnc3[nH]ccc23)CC1` [Capivasertib, 4-amino-N-[(1S)-1-(4-chlorophenyl)-3-hydroxypropyl]-1-(7H-pyrrolo[2,3-d]pyrimidin-4-yl)piperidine-4-carboxamide], the “Mean Loewe synergy score, NCI-H1876” value in the assay with NCI-H1876 cell line came to 0.7. The “Mean Loewe synergy score, NCI-H209” value in the assay on NCI-H209 cell line came to 0.85. Besides, the “Mean Loewe synergy score, OPM-2” value in the assay on OPM-2 cell line was −1. In addition, in the assay with RAJI cell line, the “Mean Loewe synergy score, RAJI” value is 2.97. Moreover, the “Mean Loewe synergy score, U266B1” value with U266B1 cell line was found to be 1.76. Further, in the assay on KMS-34 cell line, the “Mean Loewe synergy score, KMS-34” value was 7.48. Further, the “Mean Loewe synergy score, NCI-H526” value in the assay with NCI-H526 cell line was 4.3. For the same compound, the “Mean Loewe synergy score, NCI-H1836” value in the assay on NCI-H1836 cell line was found to be 1.9. In addition, the “Mean Loewe synergy score, WSU-DLCL2” value with WSU-DLCL2 cell line stood at 0.95. Besides, in the assay on DOHH-2 cell line, the “Mean Loewe synergy score, DOHH2” value came to 2.89. For the same compound, in the assay on SU-DHL-6 cell line, the “Mean Loewe synergy score, SUDHL6” value is −1.92. Also, in the assay on NCI-H69 cell line, the “Mean Loewe synergy score, NCI-H69” value was 7.38. In addition, the “Mean Loewe synergy score, MM.1S” value in the assay on MM.1S cell line turned out to be 2.63. Also, the “Mean Loewe synergy score, RPMI 8226” value with RPMI 8226 cell line stood at 4.81. Moreover, the “Mean Loewe synergy score, DB” value in the assay with DB cell line turned out to be 0.29.

As to `Nc1cc(C(F)(F)F)c(-c2cc(N3CCOCC3)nc(N3CCOCC3)n2)cn1` [buparlisib, 5-(2,6-dimorpholin-4-ylpyrimidin-4-yl)-4-(trifluoromethyl)pyridin-2-amine], in the assay with NCI-H1876 cell line, the “Mean Loewe synergy score, NCI-H1876” value came to 0.017. For the same compound, the “Mean Loewe synergy score, NCI-H209” value in the assay with NCI-H209 cell line is reported as 0.78. Also, the “Mean Loewe synergy score, OPM-2” value in the assay on OPM-2 cell line is reported as −1.38. The “Mean Loewe synergy score, RAJI” value in the assay with RAJI cell line was 1.34. For the same compound, the “Mean Loewe synergy score, U266B1” value with U266B1 cell line is −0.19. In the assay with KMS-34 cell line, the “Mean Loewe synergy score, KMS-34” value is 5.94. Further, the “Mean Loewe synergy score, NCI-H526” value with NCI-H526 cell line is listed as −0.21. Also, the “Mean Loewe synergy score, NCI-H1836” value in the assay on NCI-H1836 cell line is on record as 1.64. The “Mean Loewe synergy score, WSU-DLCL2” value in the assay on WSU-DLCL2 cell line is given as −3.1. The “Mean Loewe synergy score, DOHH2” value with DOHH-2 cell line was 1.11. Moreover, the “Mean Loewe synergy score, SUDHL6” value in the assay with SU-DHL-6 cell line was −2.5. For the same compound, in the assay on NCI-H69 cell line, the “Mean Loewe synergy score, NCI-H69” value is on record as 4.09. For the same compound, the “Mean Loewe synergy score, MM.1S” value with MM.1S cell line was 1.48. Also, in the assay with RPMI 8226 cell line, the “Mean Loewe synergy score, RPMI 8226” value worked out at 3.57. The “Mean Loewe synergy score, DB” value in the assay on DB cell line worked out at 1.26.

The record behind these values is patent US20260166045A1, “COMBINATION THERAPY COMPRISING GSPT1-DIRECTED MOLECULAR GLUE DEGRADERS AND PI3K/AKT/mTOR PATHWAY INHIBITORS” (Monte Rosa Therapeutics, Inc., priority 2022, published 2026).
